Molecules are shown by their SMILES. Read-outs that look alike come from different tables or passages of the source.

Data on 9 molecules can be found in US20250051321A1, “TRICYCLIC DERIVATIVE AND PREPARATION METHOD THEREFOR AND APPLICATION THEREOF” (SHANGHAI JEMINCARE PHARMACEUTICAL CO., LTD., priority 2021, published 2025).

Data set [1] is described as follows: Pharmacokinetic test in mice. The format is in vivo, ICR mice. The note with it: for AUC / C0 / half-life / clearance / Cmax / Tmax / bioavailability: male, ICR, mouse, plasma; for clearance: read-out: CL (mL/min/kg, IV). As to the method:
Dosage preparation: The dosing solution was prepared on the day of dosing. 2 mg of compound was weighed and dissolved in 5% DMSO+10% solutol+85% saline to prepare a solution for intravenous administration at a concentration of 0.2 mg/mL. 2 mg of compound was weighed and dissolved in 25% PEG 200+75% (0.5% MC) to obtain a solution for oral administration at a concentration of 1 mg/mL.
Six healthy male naïve ICR mice, weighing 25 to 30 g, were divided into two groups (intravenous and oral groups) with three in each group, and administered in a single dose. After 3 days of acclimatization, the mice were fasted overnight (10 to 12 hours) the night before the experiment, but had free access to water during the experiment, and the diet was resumed 4 hours after administration. After intravenous and oral administration, the timer was started. Blood was collected via the orbital venous plexus at the scheduled time points (IV&PO: 0.083, 0.25, 0.5, 1, 2, 4, 6, 8, and 24 hours). 40 μL of whole blood was collected at each point and added to a 1.5 mL EP tube containing sodium heparin. The collected whole blood was vibrated twice on a vortex mixer, mixed well, placed on wet ice, and centrifuged at 8000 rpm for 5 minutes at 4° C. within 1 hour. The supernatant plasma was stored in a −80° C. freezer until processing for analysis.

The test system of data set [2] is plasma LPA 18:1 and LPA 18:2. Kind of data set: Human plasma ex vivo assay (LPA 18:1 / 18:2 by LC-MS/MS). The format is biochemical. The note with it: 37° C., 2 hours. In a few lines: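 Human plasma incubated 2 h at 37° C with compound (8 points, 1:3 dilution, top 10 μM, 0.1% DMSO), then quenched with 0.1% FA containing LPA 17:0 internal standard.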
The target in data set [3] is ATX (Homo sapiens (Human), UniProt Q13822). Kind of data set: ATX enzyme inhibition assay (Amplex UltraRed/choline oxidase/HRP, 16:0 Lyso PC substrate). The format is biochemical. In a few lines:
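ATX (2× stock […]) preincubated with compound for 10 min at room temperature in assay buffer at pH 8.5 or 7.5. Reaction started with 16:0 Lyso PC, choline oxidase, HRP and Amplex UltraRed (2.5× working stock); fluorescence read kinetically (ex 550/em 590 nm) for 60 min.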

The mark [4] stands for this setting: LPA 18:1, read-out: Human plasma ex vivo assay IC50 (18:1 LPA).
The mark [5] stands for this setting: LPA 18:2, read-out: Human plasma ex vivo assay IC50 (18:2 LPA).
[6] abbreviates: assay buffer pH 8.5, read-out: IC50 (nM) pH 8.5.
The mark [7] stands for this setting: 5 mg/kg, PO - 5 mpk vs IV - 1 mpk.
The mark [8] stands for this setting: assay buffer pH 7.5, read-out: IC50 (nM) pH 7.5.

The term IC50 denotes the midpoint of a concentration-inhibition curve. With `CN(c1nc(-c2ccc(F)cc2)c(C#N)s1)c1c2c(nc3c(F)cc(N4CC5(CN(C(=O)[C@H]6CCOC6)C5)C4)cc13)[C@H](O)CC2` (single isomer, unassigned) [Example E5-a], in data set [1] (IV - 1 mpk), the AUCi came out at 1986 ng·h/mL; the “C0 (IV)” value is 1882 ng/mL; the “CL (mL/min/kg, IV)” value is on record as 8.54 mL/min/kg; the T1/2 turned out to be 0.95 h. Besides, in data set [1] (PO - 10 mpk), the AUCi came out at 44380 ng·h/mL; the “Cmax (PO)” value was 7763 ng/mL; the T1/2 turned out to be 2.34 h; the “Tmax (hr, PO)” value amounted to 0.5 h. Also, the “Bioavailability (%)” value in data set [1] (PO - 10 mpk vs IV - 1 mpk) was 223%. For the same molecule, the IC50 in data set [2] (setting [4]) came out at 294 nM. The IC50 in data set [2] (setting [5]) was found to be 306 nM. In addition, in data set [3] (setting [6]), the IC50 was 22.7 nM.

As a reminder, the AUC is concentration integrated over time. Read a low AUC as less exposure. The term half-life denotes the time in which the quantity being followed falls by half. A high value points to slow loss. Usually Cmax stands for the maximum level reached in the sampled fluid or tissue. Usually Tmax stands for the time at which the peak concentration occurs. Broadly, the bioavailability is the share of a dose that reaches the circulation, judged against a reference dose that is usually intravenous. As for `CN(c1nc(-c2ccc(F)cc2)c(C#N)s1)c1c2c(nc3c(F)cc(N4CC5(CN(C(=O)C(C)(C)O)C5)C4)cc13)[C@@H](O)CC2` (single isomer, unassigned) [Example E16-a], in data set [1] (1 mg/kg, IV - 1 mpk), the AUC came out at 5540 ng·h/mL, the C0 is 3550 ng/mL, the half-life is 1.87 h and the clearance is 3.07 mL/min/kg. In data set [1] (5 mg/kg, PO - 5 mpk), the exposure (AUC) was determined as 17000 ng·h/mL, the Cmax was 3010 ng/mL, the Tmax was 0.33 h and the half-life is 2.22 h. Also, in data set [1] (setting [7]), the bioavailability stood at 61.3%. Besides, the IC50 in data set [2] (setting [4]) amounted to 381 nM. Further, in data set [2] (setting [5]), the IC50 is 383 nM. In addition, the IC50 in data set [3] (setting [6]) worked out at 20.1 nM.

As to `CN(c1nc(-c2ccc(F)cc2)c(C#N)s1)c1c2c(nc3c(F)cc(N4CC5(CN(C(=O)[C@H]6CCOC6)C5)C4)cc13)CCC2` [Example C1], in data set [1] (IV - 1 mpk), the AUCi stood at 5701 ng·h/mL; the “C0 (IV)” value worked out at 3141 ng/mL; the “CL (mL/min/kg, IV)” value stood at 2.92 mL/min/kg; the T1/2 is 2.15 h. Besides, in data set [1] (PO - 5 mpk), the AUCi came to 7392 ng·h/mL; the “Cmax (PO)” value came out at 1903 ng/mL; the T1/2 was 2.08 h; the “Tmax (hr, PO)” value turned out to be 1.0 h. For the same molecule, in data set [1] (PO - 5 mpk vs IV - 1 mpk), the “Bioavailability (%)” value is given as 26%. Further, the IC50 in data set [2] (setting [4]) came out at 521 nM. Besides, the IC50 in data set [2] (setting [5]) worked out at 438 nM. Besides, in data set [3] (setting [8]), the IC50 was determined as 63.5 nM. In addition, the IC50 in data set [3] (setting [6]) amounted to 36.3 nM.

In the case of `CN(c1nc(-c2ccc(F)cc2)c(C#N)s1)c1c2c(nc3c(F)cc(N4CC5(CN(C(=O)[C@@H]6CCOC6)C5)C4)cc13)CC2` [Example C8], in data set [1] (1 mg/kg, IV - 1 mpk), the AUC came to 2080 ng·h/mL, the C0 turned out to be 1800 ng/mL, the half-life is 1.23 h and the clearance came to 8 mL/min/kg. For the same molecule, in data set [1] (5 mg/kg, PO - 5 mpk), the AUC was found to be 7940 ng·h/mL, the concentration peaked (Cmax) at 2920 ng/mL, the Tmax worked out at 0.25 h and the half-life is 2.4 h. For the same molecule, the bioavailability in data set [1] (setting [7]) amounted to 76.2%. Further, in data set [2] (setting [4]), the IC50 came out at 168 nM. Besides, the IC50 in data set [2] (setting [5]) came to 191 nM. The half-inhibitory concentration (IC50) in data set [3] (setting [8]) stood at 67.3 nM. In addition, in data set [3] (setting [6]), the IC50 was determined as 27.5 nM.

For the molecule `CN(c1nc(-c2ccc(F)cc2)c(C#N)s1)c1c2c(nc3ncc(N4CC5(CN(C(=O)[C@@H]6CCOC6)C5)C4)cc13)CC2` [Example C17], in data set [1] (5 mg/kg, PO - 5 mpk), the AUC worked out at 16900 ng·h/mL, the Cmax stood at 4280 ng/mL, the Tmax turned out to be 0.5 h and the half-life was 2.13 h. For the same molecule, in data set [2] (setting [4]), the IC50 worked out at 318 nM. Further, the IC50 in data set [2] (setting [5]) was found to be 318 nM. In data set [3] (setting [6]), the IC50 was found to be 25.9 nM.

In the case of `CN(c1nc(-c2ccc(F)cc2)c(C#N)s1)c1c2c(nc3c(F)cc(N4CC5(CN(C(=O)[C@H]6CCOC6)C5)C4)cc13)COC2` [Example C18], in data set [1] (1 mg/kg, IV - 1 mpk), the AUC was 3700 ng·h/mL, the C0 was determined as 1940 ng/mL, the half-life is 1.82 h and the clearance came to 4.59 mL/min/kg. Further, in data set [1] (5 mg/kg, PO - 5 mpk), the AUC came out at 11000 ng·h/mL, the Cmax was 3330 ng/mL, the Tmax came out at 0.58 h and the half-life is 2.79 h. In addition, in data set [1] (setting [7]), the bioavailability was found to be 59.7%. The IC50 in data set [3] (setting [6]) stood at 15.2 nM.

Turning to `Cc1cc(N2CC3(CN(C(=O)C(C)(C)O)C3)C2)nc2c(N(C)c3nc(-c4ccc(F)cc4)c(C#N)s3)c3c(nc12)C(C)(O)CC3` (stereo not shown) [Example E25], in data set [1] (5 mg/kg, PO - 5 mpk), the AUC was found to be 23900 ng·h/mL, the Cmax was 2830 ng/mL, the Tmax was found to be 0.58 h and the half-life is 2.66 h. Also, the IC50 in data set [2] (setting [4]) amounted to 379 nM. Besides, the IC50 in data set [2] (setting [5]) was 457 nM.

In the case of `Cc1cc(N2CC3(CN(C(=O)C(C)(C)O)C3)C2)cc2c(N(C)c3nc(-c4ccc(F)cc4)c(C#N)s3)c3c(nc12)C(O)CC3` (stereo not shown) [Example E26], in data set [1] (5 mg/kg, PO - 5 mpk), the AUC was 31300 ng·h/mL, the Cmax turned out to be 4430 ng/mL, the Tmax was determined as 1.75 h and the half-life is 2.16 h. For the same molecule, in data set [2] (setting [4]), the IC50 worked out at 516 nM. Also, the IC50 in data set [2] (setting [5]) stood at 592 nM.

`Cc1cc(N2CC3(CN(C(=O)C(C)(C)O)C3)C2)nc2c(N(C)c3nc(-c4ccc(F)cc4)c(C#N)s3)c3c(nc12)C(O)CC3` (stereo not shown) [Example E32]: in data set [1] (5 mg/kg, PO - 5 mpk), the AUC was 8890 ng·h/mL, the Cmax amounted to 2040 ng/mL, the Tmax stood at 1.58 h and the half-life was 1.51 h. The IC50 in data set [2] (setting [4]) came out at 202 nM. The IC50 in data set [2] (setting [5]) is 185 nM.
